Measurements from patent US20260327191A1, “GSK3a INHIBITORS AND METHODS OF USE THEREOF” (Blueprint Medicines Corporation, priority 2023, published 2026).
Like-named read-outs stand apart in the source and are kept apart here.

What was measured:
[1] = molecular target: T1, GSK3B (Homo sapiens, UniProt P49841); assay: NanoBRET cellular target engagement assay, Nanoluc-GSK3B in HEK293 cells; assay type: cell-based; design: expressed in transfected cells; conditions: NanoBRET GSK3β IC50, HEK293 cells, tracer K-8, 2 hours, 37° C
[2] = molecular target: T1, GSK3B; assay: In vitro enzymatic activity assay, GSK3β; assay type: biochemical; design: Full length human GSK3α or GSK3B expressed as N-terminal GST fusion proteins; GST (N); purchased Carna Biosciences (Japan); host or cells: baculovirus host; conditions: 1.0 mM ATP, 1.0 μM peptide substrate, 120 min, 25° C
[3] = molecular target: T2, GSK3A (Homo sapiens, UniProt P49840); assay: NanoBRET cellular target engagement assay, Nanoluc-GSK3A in HEK293 cells; assay type: cell-based; conditions: NanoBRET GSK3α IC50, HEK293 cells, tracer K-8, 2 hours, 37° C
T2 construct: expressed in transfected cells

[4] = molecular target: T3, human GSK3α (Homo sapiens, UniProt P49840); assay: In vitro enzymatic activity assay, GSK3α; assay type: biochemical; conditions: 1.0 mM ATP, 1.0 μM peptide substrate, 120 min, 25° C
T3 construct: Full length human GSK3α or GSK3B expressed as N-terminal GST fusion proteins; GST (N); purchased Carna Biosciences (Japan); host or cells: baculovirus host
T3 sequence (P49840 whole entry, the tested form may be a part): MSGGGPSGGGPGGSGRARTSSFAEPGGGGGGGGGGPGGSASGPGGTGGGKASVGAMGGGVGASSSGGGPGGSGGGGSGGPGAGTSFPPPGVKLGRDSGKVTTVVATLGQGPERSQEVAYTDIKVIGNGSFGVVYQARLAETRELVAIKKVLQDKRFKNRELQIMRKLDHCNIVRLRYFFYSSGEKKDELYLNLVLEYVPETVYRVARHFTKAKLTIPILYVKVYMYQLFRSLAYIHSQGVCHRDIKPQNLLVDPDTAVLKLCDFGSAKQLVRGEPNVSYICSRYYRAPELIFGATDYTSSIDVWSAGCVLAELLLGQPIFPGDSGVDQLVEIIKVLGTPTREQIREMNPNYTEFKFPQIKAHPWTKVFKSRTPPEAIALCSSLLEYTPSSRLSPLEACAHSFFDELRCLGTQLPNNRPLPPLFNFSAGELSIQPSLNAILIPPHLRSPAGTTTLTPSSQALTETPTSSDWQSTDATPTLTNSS

T1 sequence (P49841 whole entry, the tested form may be a part): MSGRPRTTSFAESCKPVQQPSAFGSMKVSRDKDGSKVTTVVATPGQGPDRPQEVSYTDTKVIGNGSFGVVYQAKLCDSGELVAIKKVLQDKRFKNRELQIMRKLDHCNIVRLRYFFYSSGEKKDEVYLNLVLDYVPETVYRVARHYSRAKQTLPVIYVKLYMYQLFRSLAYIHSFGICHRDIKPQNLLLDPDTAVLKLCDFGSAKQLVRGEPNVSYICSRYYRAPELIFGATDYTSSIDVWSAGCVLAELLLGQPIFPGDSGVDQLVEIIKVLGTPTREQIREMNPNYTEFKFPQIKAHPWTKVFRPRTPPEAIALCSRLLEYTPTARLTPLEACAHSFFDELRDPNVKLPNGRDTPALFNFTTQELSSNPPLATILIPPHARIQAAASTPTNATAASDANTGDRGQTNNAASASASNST
T2 sequence (P49840 whole entry): as the sequence (P49840 whole entry, the tested form may be a part) above

Row | SMILES | IC50 [1] | IC50 ([2]; read-out: Enzyme GSK3β (IC50)) | IC50 [3] | IC50 ([4]; read-out: Enzyme GSK3α (IC50)) | IC50 ([2]; Enzyme GSK3β (IC50)) | IC50 ([4]; Enzyme GSK3α (IC50))
1 | COc1cc(Cl)c(-n2cnc(N)c(C(=O)Nc3cncc(C4(N)CCOCC4)c3)c2=O)c(Cl)c1 [Example 182, 4-amino-N-(5-(4-aminotetrahydro-2H-pyran-4-yl)pyridin-3-yl)-1-(2,6-dichloro-4-methoxyphenyl)-6-oxo-1,6-dihydropyrimidine-5-carboxamide] | 643 nM | 915 nM | 8.2 nM | 17.4 nM |  | 
2 | Cc1cc(C(C)(F)F)cc(C)c1-n1cnc(N)c(C(=O)Nc2cncc([C@H]3CCCCN3)c2)c1=O [Example 186, (R)-4-amino-1-(4-(1,1-difluoroethyl)-2,6-dimethylphenyl)-6-oxo-N-(5-(piperidin-2-yl)pyridin-3-yl)-1,6-dihydropyrimidine-5-carboxamide] | 152 nM | 169 nM | 2.1 nM | 4.4 nM |  | 
3 | Nc1ncn(-c2c(Cl)cc(OC(F)F)cc2Cl)c(=O)c1C(=O)Nc1cccc([C@@H]2CCCN2)c1 [Example 193, (S)-4-amino-1-(2,6-dichloro-4-(difluoromethoxy)phenyl)-6-oxo-N-(3-(pyrrolidin-2-yl)phenyl)-1,6-dihydropyrimidine-5-carboxamide] | 487 nM | 481 nM | 6.8 nM | 9.2 nM |  | 
4 | COC(=O)c1cc(Cl)c(-n2cnc(N)c(C(=O)Nc3cncc([C@@H]4CCCCN4)c3)c2=O)c(Cl)c1 [Example 196, methyl(S)-4-(4-amino-6-oxo-5-((5-(piperidin-2-yl)pyridin-3-yl)carbamoyl)pyrimidin-1 (6H)-yl)-3,5-dichlorobenzoate] | 242 nM | 400 nM | 4.2 nM | 6.6 nM |  | 
5 | CCNCc1cncc(NC(=O)c2c(N)ncn(-c3c(Cl)cc(-c4cnco4)cc3Cl)c2=O)c1 [Example 200, 4-amino-1-(2,6-dichloro-4-(oxazol-5-yl)phenyl)-N-(5-((ethylamino)methyl)pyridin-3-yl)-6-oxo-1,6-dihydropyrimidine-5-carboxamide] | 451 nM | 813 nM | 7.6 nM | 14.4 nM |  | 
6 | CCNCc1cncc(NC(=O)c2c(N)ncn(-c3c(Cl)cc(CC(F)(F)F)cc3Cl)c2=O)c1 [Example 202, 4-amino-1-(2,6-dichloro-4-(2,2,2-trifluoroethyl)phenyl)-N-(5-((ethylamino)methyl)pyridin-3-yl)-6-oxo-1,6-dihydropyrimidine-5-carboxamide] | 385 nM | 432 nM | 5.9 nM | 8.7 nM |  | 
7 | COc1cc(C)c(-n2cnc(N)c(C(=O)Nc3cncc([C@H]4CCCCN4)c3)c2=O)c(C)c1 [Example 205, (R)-4-amino-1-(4-methoxy-2,6-dimethylphenyl)-6-oxo-N-(5-(piperidin-2-yl)pyridin-3-yl)-1,6-dihydropyrimidine-5-carboxamide] | 204 nM | 238 nM | 3.7 nM | 5 nM |  | 
8 | Cc1cc(CC(=O)O)cc(C)c1-n1cnc(N)c(C(=O)Nc2cncc([C@H]3CCCCN3)c2)c1=O [Example 207, (R)-2-(4-(4-amino-6-oxo-5-((5-(piperidin-2-yl)pyridin-3-yl)carbamoyl)pyrimidin-1 (6H)-yl)-3,5-dimethylphenyl) acetic acid] | 25000 nM |  | 966 nM |  | 234 nM | 5.3 nM
9 | Nc1ncn(-c2c(Cl)cc(N3CCC3)cc2Cl)c(=O)c1C(=O)Nc1cncc([C@@H]2CCCCN2)c1 [Example 209, (S)-4-amino-1-(4-(azetidin-1-yl)-2,6-dichlorophenyl)-6-oxo-N-(5-(piperidin-2-yl)pyridin-3-yl)-1,6-dihydropyrimidine-5-carboxamide] | 300 nM | 383 nM | 5.9 nM | 5.2 nM |  | 
10 | Cc1cc(C(F)(F)F)cc(C)c1-n1cnc(N)c(C(=O)Nc2cncc([C@H]3CCCCN3)c2)c1=O [Example 216, (R)-4-amino-1-(2,6-dimethyl-4-(trifluoromethyl)phenyl)-6-oxo-N-(5-(piperidin-2-yl)pyridin-3-yl)-1,6-dihydropyrimidine-5-carboxamide] | 173 nM | 293 nM | 3.4 nM | 5.6 nM |  | 

Continued by falling IC50 [1], values first:

Row | IC50 [1] | IC50 ([2]; read-out: Enzyme GSK3β (IC50)) | IC50 [3] | IC50 ([4]; read-out: Enzyme GSK3α (IC50)) | IC50 ([2]; Enzyme GSK3β (IC50)) | IC50 ([4]; Enzyme GSK3α (IC50)) | SMILES
11 | 491 nM | 536 nM | 7 nM | 7.9 nM |  |  | COc1cc(Cl)c(-n2cnc(N)c(C(=O)Nc3cncc(C4(N)CC4)c3)c2=O)c(Cl)c1 [Example 181, 4-amino-N-(5-(1-aminocyclopropyl)pyridin-3-yl)-1-(2,6-dichloro-4-methoxyphenyl)-6-oxo-1,6-dihydropyrimidine-5-carboxamide]
12 | 430 nM | 608 nM | 7.4 nM | 13.7 nM |  |  | CCNCc1cncc(NC(=O)c2c(N)ncn(-c3c(Cl)cc(-c4ncco4)cc3Cl)c2=O)c1 [Example 201, 4-amino-1-(2,6-dichloro-4-(oxazol-2-yl)phenyl)-N-(5-((ethylamino)methyl)pyridin-3-yl)-6-oxo-1,6-dihydropyrimidine-5-carboxamide]
13 | 330 nM | 302 nM | 5.1 nM | 6.2 nM |  |  | Nc1ncn(-c2c(Cl)cc(OC3CC3)cc2Cl)c(=O)c1C(=O)Nc1cncc([C@@H]2CCCN2)c1 [Example 194, (S)-4-amino-1-(2,6-dichloro-4-cyclopropoxyphenyl)-6-oxo-N-(5-(pyrrolidin-2-yl)pyridin-3-yl)-1,6-dihydropyrimidine-5-carboxamide]
14 | 300 nM | 576 nM | 5 nM | 7.9 nM |  |  | CCOc1cc(Cl)c(-n2cnc(N)c(C(=O)Nc3cncc(C4(N)CCC4)c3)c2=O)c(Cl)c1 [Example 183, 4-amino-N-(5-(1-aminocyclobutyl)pyridin-3-yl)-1-(2,6-dichloro-4-ethoxyphenyl)-6-oxo-1,6-dihydropyrimidine-5-carboxamide]
15 | 293 nM | 318 nM | 3.7 nM | 8 nM |  |  | CCNCc1cncc(NC(=O)c2c(N)ncn(-c3c(Cl)cc(CC(F)F)cc3Cl)c2=O)c1 [Example 203, 4-amino-1-(2,6-dichloro-4-(2,2-difluoroethyl)phenyl)-N-(5-((ethylamino)methyl)pyridin-3-yl)-6-oxo-1,6-dihydropyrimidine-5-carboxamide]
16 | 209 nM | 332 nM | 3.7 nM | 5.6 nM |  |  | CCNCc1cncc(NC(=O)c2c(N)ncn(-c3c(Cl)cc(C(=O)OC)cc3Cl)c2=O)c1 [Example 198, methyl 4-(4-amino-5-((5-((ethylamino)methyl)pyridin-3-yl)carbamoyl)-6-oxopyrimidin-1 (6H)-yl)-3,5-dichlorobenzoate]
17 | 118 nM | 203 nM | 2.4 nM | 3.3 nM |  |  | CCNCc1cncc(NC(=O)c2c(N)ncn(-c3c(Cl)cc(C(=O)OCC)cc3Cl)c2=O)c1 [Example 199, ethyl 4-(4-amino-5-((5-((ethylamino)methyl)pyridin-3-yl)carbamoyl)-6-oxopyrimidin-1 (6H)-yl)-3,5-dichlorobenzoate]
18 | 18.8 nM | 14.7 nM | 1.4 nM | 1.8 nM |  |  | COc1cc(Cl)c(-n2cnc(N)c(C(=O)Nc3cncc4c3CCC43CCCN3)c2=O)c(Cl)c1 (stereo not drawn) [Example 192, 4-amino-1-(2,6-dichloro-4-methoxyphenyl)-N-(5,6-dihydrospiro[cyclopenta[c]pyridine-7,2′-pyrrolidin]-4-yl)-6-oxo-1,6-dihydropyrimidine-5-carboxamide]
